Assay: Absorption and emission spectra of the dyes (λabs/λem in H2O)
Assay type: physicochemical
Details: Table 5, coumarin-based fluorescent groups
From the text: For compounds of Formula II, it is well known to a person of skill in the art to select the bridging unit Y, in combination with a specific embodiment of a moiety of Formula F, in combination with a specific embodiment of moiety Y, and in combination with specific substituents such that the maximal fluorescence excitation wavelength of the compound ranges from about 350 to about 1200 nm. Standard analysis well known in the art is used to obtain the absorption and emission spectra of the dyes in order to ascertain the absorption maximal wavelength and the maximal fluorescence emission wavelength. Any combinations of the above described groups may be used to form a compound of the invention with a maximal fluorescence excitation wavelength of about 550 nm, about 560 nm, about 570 nm, about 580 nm, about 590 nm, about 600 nm, about 610 nm, about 620 nm, about 615 nm, about 620 nm, about 625 nm, about 630 nm, about 635 nm, about 640 nm, about 650 nm, about 655 nm, about 660 nm, about 665 nm, about 670 nm, about 675 nm, about 680 nm, about 685 nm, about 690 nm, about 695 nm, about 700 nm, about 705 nm, about 710 nm, about 715 nm, about 720 nm, about 725 nm, about 730 nm, about 735 nm, about 740 nm, about 745 nm, about 750 nm, about 755 nm, about 760 nm, about 765 nm, about 770 nm, about 775 nm, about 780 nm, about 790 nm, about 800 nm, about 810 nm, about 820 nm, about 830 nm, about 840 nm, about 850 nm, about 860 nm, about 870 nm, about 880 nm, about 890 nm, about 900 nm, about 910 nm, about 920 nm, about 930 nm, about 940 nm, about 950 nm, about 960 nm, about 970 nm, about 980 nm, about 990 nm, about 1000 nm, about 1020 nm, about 1040 nm, about 1060 nm, about 1080 nm, about 1100 nm, about 1120 nm, about 1140 nm, about 1160 nm, about 1180 nm, or about 1200 nm. The moieties described above may be used in any combination. The maximal fluorescence excitation wavelength of the dye is typically the wavelength at which the dye has a maximal absorption or maximal optical density, which excites the dye to fluoresce. In some embodiments, the compound of Formula II has an absorption maximal wavelength at >670 nm. In one embodiment, the absorption maximal wavelength is at >700 nm. According to another embodiment, the absorption maximal wavelength is at >800 nm.

| SMILES | λabs | λcm |
| --- | --- | --- |
| COCCOCCOCCOCCOCCOCCOCCOCCOCCOCCOCCOCCOCCOCCOCCOCCOCCOCCOCCOCCOCCOCCOCCOCCN(CCCCCC(=O)ON1C(=O)CCC1=O)C(=O)CCCCCN1c2cc3oc(=O)cc(C(F)(F)F)c3cc2C(CS(=O)(=O)O)=CC1(C)C [compound 53] | 430 nm | 545 nm |
| C=C(Cc1c(C)c2ccc(N)cc2oc1=O)N(CCCCCC(=O)ON1C(=O)CCC1=O)CCOCCOCCOCCOCCOCCOCCOCCOCCOCCOCCOCCOC [compound 50] | 353 nm | 442 nm |
| COCCOCCOCCOCCOCCOCCOCCOCCOCCOCCOCCOCCN(CCCCCC(=O)ON1C(=O)CCC1=O)C(=O)Cc1c(C)c2cc(S(=O)(=O)O)c(N)cc2oc1=O [Compound No. 51] | 346 nm | 442 nm |
| COCCOCCOCCOCCOCCOCCOCCOCCOCCOCCOCCOCCN(CCCCCC(=O)ON1C(=O)CCC1=O)C(=O)c1cc2cc(F)c(O)c(F)c2oc1=O [Compound No. 52] | 416 nm | 465 nm |

Assay: Total fluorescence vs. degree of labeling (DOL) of protein dye-conjugates
Assay type: physicochemical
Details: goat anti-mouse IgG conjugates, excited at 350 nm, compared to AMCA; FIG. 7
Description: Fluorescent conjugates of goat anti-mouse IgG (GAM), goat anti-rabbit IgG (GAR), and streptavidin were prepared from the respective proteins and a reactive dye, following published procedures (U.S. Pat. No. 6,974,873; Haugland et al., Meth. Mol. Biol. 45, 205 (1995); Haugland et al., Meth. Mol. Biol. 45, 223 (1995); Haugland et al., Meth. Mol. Biol. 45, 235 (1995); Haugland et al., Current Protocols in Cell Biology, 16.5.1-16.5.22 (2000)). Briefly, an antibody or streptavidin at 1 mg/mL in […] pH 8.5 sodium bicarbonate buffer was mixed with one of the reactive dye at various ratio of dye molecules/protein molecule. After incubating for about an hour at room temperature, the reaction mixture was separated by gel filtration using Sephadex G-25 equilibrated with PBS (pH 7.4). The various dye molecules/protein ratios used in the labeling reactions produced protein conjugates with different degree of dye labeling (DOL) as listed in Table 7 below for each dye/protein pair.
The fluorescence of the conjugates was measured using a JACSO fluorescence spectrophotometer and was then plotted against the DOL to give FIGS. 4-7.
A set of goat anti-mouse IgG conjugates were prepared by labeling a portion of goat anti-mouse IgG with one of three near IR dyes. […]

| SMILES | total fluorescence vs. degree of labeling (DOL) |
| --- | --- |
| COCCOCCOCCOCCOCCOCCOCCOCCOCCOCCOCCN(CCCCCC(=O)ON1C(=O)CCC1=O)C(=O)Cc1c(C)c2ccc(N)cc2oc1=O [Compound No. 92] | higher fluorescence quantum yield over a wide of degree of labeling and has less fluorescence quenching when the antibody is at higher degrees of labeling |
